From US10759796B2, “CXCR4 inhibitors and uses thereof” (X4 Pharmaceuticals, Inc., priority 2016, dated 2020)
pIC50: −log10 of the molar value.

How the values were obtained:
[1] = molecular target: Jurkat cells expressing CXCR4 (Homo sapiens (Human), UniProt P61073); test: Chemokine (CXCL12-AF647) binding inhibition assay; conditions: CXCL12-AF647 25 ng/mL, read-out: IC50 CXCL-12 binding Jurkat
Experimental: Chemokine (CXCL12-AF647) Binding Inhibition Assay
Jurkat cells expressing CXCR4 were washed once with assay buffer (Hanks' balanced salt solution with 20 mM HEPES buffer and 0.2% bovine serum albumin, pH 7.4) and then incubated for 15 min at room temperature with the test compounds diluted in assay buffer at dose-dependent concentrations. Subsequently, CXCL12-AF647 (25 ng/mL) was added to the compound-incubated cells. The cells were incubated for 30 min at room temperature. Thereafter, the cells were washed twice in assay buffer, fixed in 1% paraformaldehyde in PBS, and analyzed on the FL4 channel of a FACSCalibur flow cytometer equipped with a 635-nm red diode laser (Becton Dickinson, San Jose, Calif., USA).
The percentages of inhibition of CXCL12-AF647 binding were calculated according to the formula: [1−((MFI−MFINC)/(MFIPC−MFINC))]×100 where MFI is the mean fluorescence intensity of the cells incubated with CXCL12-AF647 in the presence of the inhibitor, MFINC is the mean fluorescence intensity measured in the negative control (i.e., autofluorescence of unlabeled cells), and MFIPC is the mean fluorescence intensity of the positive control (i.e., cells exposed to CXCL12-AF647 alone).

[2] = molecular target: CXCR-4 transfected U87 cell line (U87.CXCR4) (Homo sapiens (Human), UniProt P61073); test: Intracellular CXCL-12-induced calcium mobilization assay (FLIPR); format: cell-based; conditions: U87.CXCR4 cells, CXCL-12 25-50 ng/mL; read-out: IC50 CXCL-12 Ca2+ flux U87.CXCR4+
Experimental: Example 28: REGA Screening Assay
Intracellular CXCL-12-Induced Calcium Mobilization Assay
Intracellular calcium mobilization induced by chemokines or chemokine-derived peptides were evaluated using a calcium responsive fluorescent probe and a FLIPR system. The CXCR-4 transfected U87 cell line (U87.CXCR4) cells were seeded in gelatine-coated black-wall 96-well plates at 20,000 cells per well and incubated for 12 hours. Cells were then loaded with the fluorescent calcium probe Fluo-2 acetoxymethyl at 4 μM final concentration in assay buffer (Hanks' balanced salt solution with 20 mM HEPES buffer and 0.2% bovine serum albumin, pH 7.4) for 45 min at 37° C. The intracellular calcium mobilization induced by the CXCL-12 (25-50 ng/mL) was then measured at 37° C. by monitoring the fluorescence as a function of time in all the wells simultaneously using a fluorometric imaging plate reader (FLIPR Tetra, Molecular Devices).

in vitro = conditions: human, Caco-2, pH 7.4
Experimental: Example 28: Caco-2 Permeability Assay
The goal of this assay was to evaluate the intestinal absorption potential of drug candidates using Caco-2 cell lines.
1. Prewarm Prewarm HBSS Buffer in 37° C. water bath
2. Sonicate Take compounds from −20° C., sonicate for a few minutes (no less than 1 minute)
HBSS buffer with 0.3% DMSO and 5 μM LY: add 150 μL DMSO and 50 μL LY (5 mM) into 50 ml HBSS buffer (pH 7.4).
HBSS buffer with 0.1% DMSO and 5 μM LY: add 50 μL DMSO and 50 μL LY (5 mM) into 50 mL HBSS buffer (pH 7.4).
HBSS buffer with 0.3% DMSO: add 150 μL DMSO into 50 ml HBSS buffer (pH 7.4).
HBSS buffer with 0.1% DMSO: add 50 μL DMSO into 50 ml HBSS buffer (pH 7.4).
Receiver Solution Buffer:
Prepare HBSS buffer with 0.4% DMSO: add 200 μL DMSO into 50 ml HBSS buffer (pH 7.4).
Prepare HBSS buffer with 0.4% DMSO and 5 μM LY: add 200 μL DMSO and 50 μL LY (5 mM) into 50 ml HBSS buffer (pH 7.4).
4. Measure TEER Take cell culture plate out of incubator, wash the cell monolayers with HBSS buffer, and then measure TEER values at Rm temperature. 5. Centrifuge Centrifuge the compound solution (from step 3) at 4000 rpm for 5 min before loading to donor chambers. 6. Dosing Add solution based on the volumes listed in the following table (make sure to take extra 100 μL of donor sample for TO as Backup).
7. Apical LYT0 Samples To determine LY concentration in the apical chember, take 100 μL sample from apical chambers into an opaque plate for LYT0. 8. Prewarm Prewarm apical and basolateral plates at 37° C. for about 5 min, then begin transport by placing the apical plate onto basolateral plate. 9. Incubation Keep the plates in incubator at 37° C. for 90 min. 10. Standard Curve Preparation
For 300 μM compound solution, add 6 μL of compound stock solution into 192 μL of MeOH/H2O (1:1).
Prepare Working Solution in MeOH/H2O (1:1)
3 μL (20×)+57 μL of 0.4% DMSO HBSS+60 μL ACN with IS (Osalmid or Imipramine) - - - 120 μL (1×)
11. Transport Termination Separate the apical plate from the basolateral plate after 90-min incubation.
12. Measure LY Take 100 μL samples from basolateral plate to an opaque plate as LYT90.
13. Measure LY concentrations for LYT0 and LYT90 by Fluorometer (at excitation of 485 nm/emission of 535 nm).
Study details: Test concentration 10 μM
Test systems: Caco-2/HBSS solution
Incubation conditions: 0, 90 min at 37° C.
Sample size: Duplicates (n=2)
Bioanalytical method: LC-MS/MS
For Millicell-24 Cell Culture Plates: surface area of the membrane=0.7 cm^2, VA=0.8 mL (A-to-B) or 0.4 mL (B-to-A)
1. Papp values were calculated based on calculated concentrations.
The compound numbers correspond to the compound numbers in Table 1.

Chain of CXCR-4 transfected U87 cell line (U87.CXCR4) (P61073 whole entry): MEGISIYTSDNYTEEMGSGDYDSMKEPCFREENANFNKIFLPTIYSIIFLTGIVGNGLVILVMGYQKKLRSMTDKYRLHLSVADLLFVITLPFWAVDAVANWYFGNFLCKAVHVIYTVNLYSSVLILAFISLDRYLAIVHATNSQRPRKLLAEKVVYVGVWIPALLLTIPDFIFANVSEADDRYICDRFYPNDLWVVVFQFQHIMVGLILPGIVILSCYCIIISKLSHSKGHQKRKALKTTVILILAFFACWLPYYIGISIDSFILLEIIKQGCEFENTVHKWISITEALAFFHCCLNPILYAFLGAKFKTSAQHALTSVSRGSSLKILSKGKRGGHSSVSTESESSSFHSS
Chain of Jurkat cells expressing CXCR4 (P61073 whole entry): as above

Structure (SMILES) | pIC50 [1] | pIC50 [2] | Papp A→B at 90 min, 10 μM (in vitro) [×10⁻⁶ cm/s] | Papp B→A at 90 min, 10 μM (in vitro) [×10⁻⁶ cm/s] | efflux ratio at 90 min, 10 μM (in vitro) | Papp at 90 min, 10 μM (in vitro) [×10⁻⁶ cm/s]
CN1CC2CCC(C1)N2c1cccc2nc([C@H]3CCC[C@@H](c4ncccc4Cl)N3)cn12 [Compound I-182] | 7.00 to 11.00 | ≤ 6.00 | 10 to 30 | 10 to 30 | 0.1 to 10 | 
Cc1cccnc1[C@@H]1CCC[C@H](c2cn3c(-c4ccccn4)cccc3n2)N1 [Compound I-216] | ≤ 6.00 | ≤ 6.00 |  |  |  | 
Cc1cccnc1[C@@H]1CCC[C@H](c2cn3c(N4CC5CCC(C4)N5C)cccc3n2)N1C [Compound I-68] | 7.00 to 11.00 | 7.00 to 11.00 | 0.1 to 10 | 10 to 30 | 10 to 30 | 
Cc1cccnc1[C@@H]1CCC[C@H](c2nc3cccc(N4CC5CCC(C4)N5C)n3c2Cl)N1C [Compound I-137] | 7.00 to 11.00 | 6.00 to 7.00 | 0.1 to 10 | 0.1 to 10 | 0.1 to 10 | 
Cc1cccnc1[C@@H]1CCC[C@H](c2cn3c(-c4ccnn4C)cccc3n2)N1 [Compound I-212] | ≤ 6.00 | ≤ 6.00 |  |  |  | 
Cc1cccnc1[C@@H]1CCC[C@H](c2nc3ccccn3c2CCC#N)N1 [Compound I-219] | ≤ 6.00 | ≤ 6.00 |  |  |  | 
Cc1cccnc1[C@@H]1CCC[C@H](c2cn3c(-c4cccnc4)cccc3n2)N1 [Compound I-215] | ≤ 6.00 | ≤ 6.00 |  |  |  | 
Cc1cccnc1[C@@H]1CCC[C@H](c2nc3ccccn3c2-c2ccccn2)N1 [Compound I-209] | ≤ 6.00 |  |  |  |  | 
Cc1cccnc1[C@@H]1CCC[C@H](c2cn3ccccc3n2)N1CCCCN [Compound I-2] | 6.00 to 7.00 | 6.00 to 7.00 |  |  |  | 
COCCc1ccc(OCC(O)CNC(C)C)cc1 (centres unmarked) [Metoprolol, reference compound] |  |  |  |  |  | > 10
Cc1cccnc1[C@@H]1CCC[C@H](c2cn3c(-c4ccncc4)cccc3n2)N1 [Compound I-214] | ≤ 6.00 | ≤ 6.00 |  |  |  | 
Cc1cccnc1[C@@H]1CCC[C@H](c2cn3c(-c4cncn4C)cccc3n2)N1 [Compound I-213] | ≤ 6.00 | ≤ 6.00 |  |  |  | 
Cc1cccnc1[C@@H]1CCC[C@H](c2cn3ccccc3n2)N1CCn1cccn1 [Compound I-10] | 7.00 to 11.00 | 7.00 to 11.00 |  |  |  | 

The remaining lines, values ahead:

pIC50 [1] | pIC50 [2] | Papp A→B at 90 min, 10 μM (in vitro) [×10⁻⁶ cm/s] | Papp B→A at 90 min, 10 μM (in vitro) [×10⁻⁶ cm/s] | efflux ratio at 90 min, 10 μM (in vitro) | Papp at 90 min, 10 μM (in vitro) [×10⁻⁶ cm/s] | Structure (SMILES)
7.00 to 11.00 | 6.00 to 7.00 | 0.1 to 10 | 10 to 30 | > 30 |  | CO[C@H](c1c([C@H]2CCC[C@@H](c3ncccc3C)N2C)nc2ccccn12)C1CCN(C)CC1 [Compound I-104]
7.00 to 11.00 | 6.00 to 7.00 | 10 to 30 | 10 to 30 | 0.1 to 10 |  | Cc1cccnc1[C@@H]1CCC[C@H](c2nc3cccc(N4CCN(C5CC5)CC4)n3c2CO)N1C [Compound I-112]
7.00 to 11.00 | 7.00 to 11.00 | 0.1 to 10 | 10 to 30 | 0.1 to 10 |  | Cc1cccnc1[C@@H]1CCC[C@H](c2cn3c(N4CCN(C)CC4)cccc3n2)N1CCCO [Compound I-49]
7.00 to 11.00 | ≤ 6.00 | 0.1 to 10 | 10 to 30 | 0.1 to 10 |  | CC(C)N1CCN(c2cccc3nc([C@H]4CCC[C@@H](c5ncccc5Cl)N4C)cn23)CC1 [Compound I-150]
7.00 to 11.00 | 6.00 to 7.00 | 0.1 to 10 | 10 to 30 | 10 to 30 |  | Cc1cccnc1[C@@H]1CCC[C@H](c2nc3ccccn3c2COC2CCCN(C)C2)N1C (some centres unmarked) [Compound I-63]
6.00 to 7.00 | ≤ 6.00 | 0.1 to 10 | 10 to 30 | > 30 |  | Cc1cccnc1[C@@H]1CCC[C@H](c2nc3ccccn3c2COC2CCN(C)CC2)N1C [Compound I-62]
7.00 to 11.00 | 7.00 to 11.00 | 10 to 30 | > 30 | 0.1 to 10 |  | Cc1cccnc1[C@@H]1CCC[C@H](c2cn3c(N4CCN5CCCC5C4)cccc3n2)N1C (some centres unmarked) [Compound I-77]
7.00 to 11.00 | 6.00 to 7.00 | 0.1 to 10 | 10 to 30 | 0.1 to 10 |  | CC(C)c1cccnc1[C@@H]1CCC[C@H](c2cn3c(N4CCN(C)CC4)cccc3n2)N1C [Compound I-51]
7.00 to 11.00 | 7.00 to 11.00 | 0.1 to 10 | 10 to 30 | 0.1 to 10 |  | CN1CCN(c2cccc3nc([C@H]4CCC[C@@H](c5ncccc5Cl)N4C)cn23)CC1 [Compound I-82]
6.00 to 7.00 | ≤ 6.00 |  |  |  |  | Cc1cccnc1[C@@H]1CCC[C@H](c2cn3c(N4CCN(C)CC4=O)cccc3n2)N1 [Compound I-211]
6.00 to 7.00 | ≤ 6.00 |  |  |  |  | CCOCc1c([C@H]2CCC[C@@H](c3ncccc3C(C)C)N2C)nc2cccc(N3CCN(CC)CC3)n12 [Compound I-59]
7.00 to 11.00 | 6.00 to 7.00 |  |  |  |  | Cc1cccnc1[C@@H]1CCC[C@H](c2cn3c(-c4ccncc4)cccc3n2)N1C [Compound I-5]
7.00 to 11.00 | 7.00 to 11.00 |  |  |  |  | Cc1cccnc1[C@@H]1CCC[C@H](c2cn3ccccc3n2)N1CCc1ccccn1 [Compound I-8]
6.00 to 7.00 | ≤ 6.00 |  |  |  |  | CC(C)c1cccnc1[C@@H]1CCC[C@H](c2nc3cccc(N4CCN(C)CC4)n3c2CO)N1C [Compound I-74]
6.00 to 7.00 | ≤ 6.00 |  |  |  |  | Cc1cccnc1[C@@H]1CCC[C@H](c2cn3c(CCc4ccccn4)cccc3n2)N1C [Compound I-7]
7.00 to 11.00 | ≤ 6.00 |  |  |  |  | CN1CCN(c2cccc3nc([C@H]4CCC[C@@H](c5ncccc5C(F)(F)F)N4C)c(Cl)n23)CC1 [Compound I-119]
7.00 to 11.00 | 6.00 to 7.00 |  |  |  |  | Cc1cccnc1[C@H]1CCC[C@@H](c2nc3ccccn3c2CCCN)N1C (stereo in doubt) [Compound I-26]
 |  |  |  | > 116 |  | CC[C@H]1OC(=O)[C@H](C)[C@@H](O[C@H]2C[C@@](C)(OC)[C@@H](O)[C@H](C)O2)[C@H](C)[C@@H](O[C@@H]2O[C@H](C)C[C@H](N(C)C)[C@H]2O)[C@](C)(O)C[C@@H](C)C(=O)[C@H](C)[C@@H](O)[C@]1(C)O [Erythromycin, reference compound]
